Experiments:
Type in all cases: biochemical
Design in all cases: from tissue
MAGL = biological target: T1, MAGL (Mus musculus, UniProt O35678); assay: In vitro competitive ABPP, % inhibition at fixed concentration, MAGL
T1 sequence (O35678 1-303): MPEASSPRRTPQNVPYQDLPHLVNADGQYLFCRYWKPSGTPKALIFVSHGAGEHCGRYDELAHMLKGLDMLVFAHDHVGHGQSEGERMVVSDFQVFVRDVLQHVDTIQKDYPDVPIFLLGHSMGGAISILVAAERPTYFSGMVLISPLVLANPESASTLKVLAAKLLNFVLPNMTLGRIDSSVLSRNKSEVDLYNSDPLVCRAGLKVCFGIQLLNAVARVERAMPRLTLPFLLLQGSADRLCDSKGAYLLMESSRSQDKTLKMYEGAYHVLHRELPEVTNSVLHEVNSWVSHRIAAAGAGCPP
Description: (§1) In Vitro Competitive Activity-Based Protein Profiling.
(§2) Proteomes (mouse brain membrane fraction or cell lysates) (50 μL, 1.0 mg/ml total protein concentration) were preincubated with varying concentrations of inhibitors at 37° C. After 30 min, FP-Rh (1.0 μL, 50 μM in DMSO) was added and the mixture was incubated for another 30 min at 37° C. Reactions were quenched with SDS loading buffer (50 μL—4×) and run on SDS-PAGE. Following gel imaging, serine hydrolase activity was determined by measuring fluorescent intensity of gel bands corresponding to MAGL, ABHD6 and FAAH using ImageJ 1.43u software.

FAAH = biological target: T2, FAAH (Mus musculus, UniProt O08914); assay: In vitro competitive ABPP, % inhibition at fixed concentration, FAAH
T2 sequence (O08914 1-579): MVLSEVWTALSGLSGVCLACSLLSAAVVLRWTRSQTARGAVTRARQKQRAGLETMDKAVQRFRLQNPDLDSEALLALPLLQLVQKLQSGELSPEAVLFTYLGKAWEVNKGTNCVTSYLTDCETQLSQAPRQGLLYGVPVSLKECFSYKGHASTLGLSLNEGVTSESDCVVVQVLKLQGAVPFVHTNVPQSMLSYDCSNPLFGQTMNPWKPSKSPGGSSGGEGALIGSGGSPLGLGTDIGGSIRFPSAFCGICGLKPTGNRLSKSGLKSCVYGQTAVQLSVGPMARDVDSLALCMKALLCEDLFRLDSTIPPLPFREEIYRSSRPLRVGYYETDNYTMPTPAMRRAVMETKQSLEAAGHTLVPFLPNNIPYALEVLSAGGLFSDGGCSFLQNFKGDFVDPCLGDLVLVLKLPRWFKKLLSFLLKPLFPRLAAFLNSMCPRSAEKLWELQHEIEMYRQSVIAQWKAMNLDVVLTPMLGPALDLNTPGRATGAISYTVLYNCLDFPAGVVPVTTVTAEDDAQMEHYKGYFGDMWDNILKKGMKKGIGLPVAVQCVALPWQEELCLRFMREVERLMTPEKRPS
Description: as §1, §2

ABHD6 = biological target: T3, ABHD6 (Mus musculus, UniProt Q8R2Y0); assay: In vitro competitive ABPP, % inhibition at fixed concentration, ABHD6
T3 sequence (Q8R2Y0 1-336): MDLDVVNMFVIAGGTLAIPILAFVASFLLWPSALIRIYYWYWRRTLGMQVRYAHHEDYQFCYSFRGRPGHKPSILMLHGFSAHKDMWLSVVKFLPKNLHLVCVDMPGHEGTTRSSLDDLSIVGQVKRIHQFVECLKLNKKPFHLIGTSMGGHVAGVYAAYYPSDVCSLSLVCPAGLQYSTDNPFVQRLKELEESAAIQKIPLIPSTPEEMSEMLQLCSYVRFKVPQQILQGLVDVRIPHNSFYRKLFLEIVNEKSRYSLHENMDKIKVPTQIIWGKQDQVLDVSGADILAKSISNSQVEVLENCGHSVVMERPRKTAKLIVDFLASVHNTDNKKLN
Description: as §1, §2

| inhibition at 1 µM (MAGL) | inhibition at 1 µM (FAAH) | inhibition at 1 µM (ABHD6) | inhibition at 10 µM (MAGL) | inhibition at 10 µM (FAAH) | inhibition at 10 µM (ABHD6) | SMILES |
| --- | --- | --- | --- | --- | --- | --- |
| 25 to 75% | < 25% | 25 to 75% | – | – | – | O=C(ON1C(=O)CCC1=O)N1CCN(Cc2cc(C(F)(F)F)ccc2N2CCOCC2)CC1 [Example 119, 2,5-Dioxopyrrolidin-1-yl 4-{[2-(morpholin-4-yl)-5-(trifluoromethyl)phenyl]methyl}piperazine-1-carboxylate] |
| > 75% | < 25% | 25 to 75% | – | – | – | O=C(ON1C(=O)CCC1=O)N1CCN(Cc2cc(C(F)(F)F)ccc2N2CCCC2)CC1 [Example 120, 2,5-Dioxopyrrolidin-1-yl 4-{[2-(pyrrolidin-1-yl)-5-(trifluoromethyl)phenyl]methyl}piperazine-1-carboxylate] |
| 25 to 75% | < 25% | 25 to 75% | – | – | – | Cc1ccc(N2CCOCC2)c(CN2CCN(C(=O)ON3C(=O)CCC3=O)CC2)c1 [Example 127, 2,5-Dioxopyrrolidin-1-yl 4-{[5-methyl-2-(morpholin-4-yl)phenyl]methyl}piperazine-1-carboxylate] |
| 25 to 75% | < 25% | < 25% | – | – | – | Cc1ccc(N2CCCC2)c(CN2CCN(C(=O)ON3C(=O)CCC3=O)CC2)c1 [Example 128, 2,5-Dioxopyrrolidin-1-yl 4-{[5-methyl-2-(pyrrolidin-1-yl)phenyl]methyl}piperazine-1-carboxylate] |

Continued, compound first:

| SMILES | inhibition at 1 µM (MAGL) | inhibition at 1 µM (FAAH) | inhibition at 1 µM (ABHD6) | inhibition at 10 µM (MAGL) | inhibition at 10 µM (FAAH) | inhibition at 10 µM (ABHD6) |
| --- | --- | --- | --- | --- | --- | --- |
| Cc1cc(-c2ccc(CN3CCN(C(=O)ON4C(=O)CCC4=O)CC3)c(C)c2)cc(C)n1 [Example 113, 2,5-Dioxopyrrolidin-1-yl 4-{[4-(2,6-dimethylpyridin-4-yl)-2-methylphenyl]methyl}piperazine-1-carboxylate] | 25 to 75% | < 25% | 25 to 75% | – | – | – |
| O=C(ON1C(=O)CCC1=O)N1CCN(Cc2ccc(Cl)cc2N2CCC(C(=O)N3CCCC3)CC2)CC1 [Example 116, 2,5-Dioxopyrrolidin-1-yl 4-({4-chloro-2-[4-(pyrrolidine-1-carbonyl)piperidin-1-yl]phenyl}methyl)piperazine-1-carboxylate] | 25 to 75% | < 25% | < 25% | – | – | – |
| O=C(ON1C(=O)CCC1=O)N1CCN(Cc2ccc(Cl)cc2N2CCn3ncnc3C2)CC1 [Example 117, 2,5-Dioxopyrrolidin-1-yl 4-[(4-chloro-2-{5H,6H,7H,8H-[1,2,4]triazolo[1,5-a]pyrazin-7-yl}phenyl)methyl]piperazine-1-carboxylate] | 25 to 75% | < 25% | < 25% | – | – | – |
| O=C(ON1C(=O)CCC1=O)N1CCN(Cc2ccc(Cl)cc2N2CCN3CCC[C@@H]3C2)CC1 [Example 125, 2,5-Dioxopyrrolidin-1-yl 4-({2-[(8aR)-octahydropyrrolo[1,2-a]piperazin-2-yl]-4-chlorophenyl}methyl)piperazine-1-carboxylate] | > 75% | < 25% | > 75% | – | – | – |
| CS(=O)(=O)N1CCN(C(=O)ON2C(=O)CCC2=O)CC1 [Example 126, 2,5-Dioxopyrrolidin-1-yl 4-methanesulfonylpiperazine-1-carboxylate] | 25 to 75% | < 25% | < 25% | < 25% | < 25% | < 25% |
| Cn1ncc(Br)c1CN1CCN(C(=O)ON2C(=O)CCC2=O)CC1 [Example 135, 2,5-Dioxopyrrolidin-1-yl 4-((4-bromo-1-methyl-1H-pyrazol-5-yl)methyl)piperazine-1-carboxylate] | 25 to 75% | < 25% | 25 to 75% | – | – | – |
| COc1ccc(-c2cc(CN3CCN(C(=O)ON4C(=O)CCC4=O)CC3)no2)cc1 [Example 136, 2,5-Dioxopyrrolidin-1-yl 4-((5-(4-methoxyphenyl)isoxazol-3-yl)methyl)piperazine-1-carboxylate] | 25 to 75% | < 25% | 25 to 75% | – | – | – |
